Here are results for 20 molecules from patent US9561228B2 (Celgene Avilomics Research, Inc., priority 2013, dated 2017).

Experiment [1] concerns the target T1, MEK1 activated ERK1 (Homo sapiens, UniProt P27361).
T1 construct: purchased Millipore (Billerica, Mass.) 14-439-K
Nature of the experiment: Omnia continuous-read kinase assay for potency against MEK1 activated ERK1. In kind it is biochemical. Particulars: MEK1 activated ERK1, ATP at KM; read-out: ERK1 Omnia WT ATP KM IC50. The text has this:
Omnia Assay Protocol for Potency Assessment Against MEK1 Activated ERK1:
The protocol below describes continuous-read kinase assays to measure potency of compounds against activated ERK1 enzyme. The mechanics of the assay platform are best described by the vendor (Invitrogen, Carlsbad, Calif.) on their website at the following URL: invitrogen.com/site/us/en/home.html.
Briefly, a 1.25× stock of ERK1 enzyme (14-439-K) from Millipore (Billerica, Mass.), 5×ATP (AS001A) and ST17-Sox conjugated peptide substrate (KNZ1171C) were prepared in 1× kinase reaction buffer consisting of 20 mM Tris, pH 7.5, 5 mM MgCl2, 1 mM EGTA, 5 mM β-glycerophosphate, 5% glycerol (10× stock, KB002A) and 0.2 mM DTT. 10 μL of ATP/ST17-sox peptide substrate mix was combined with 0.5 μL volume of 100% DMSO and serially diluted compounds were prepared in 100% DMSO in a Corning (#3574) 384-well, white, non-binding surface microtiter plate (Corning, N.Y.). Kinase reactions were started with the addition of 40 μL of ERK1 solution and monitored every 71 seconds for 30-240 minutes at λex360/λem485 in a Synergy plate reader from BioTek (Winooski, Vt.). At the conclusion of each assay, progress curves from each well were examined for linear reaction kinetics and fit statistics (R^2, 95% confidence interval, absolute sum of squares). Initial velocity (0 minutes to ˜30+ minutes) from each reaction was determined from the slope of a plot of relative fluorescence units vs time (minutes or seconds) and then plotted against inhibitor concentration to estimate ^AppIC50 from log [Inhibitor] vs Response, Variable Slope model in GraphPad Prism from GraphPad Software (San Diego, Calif.).
[Reagent] used in optimized protocol:
[ERK1]=4 nM, [ATP]=50 μM, [ST17-Sox]=10 μM (ATP ^appKM 48 μM)
The results of this assay show the degree of inhibition of ERK activity, which is a direct measurement of inhibition of ERK activity. Results from this assay are reported in Table A under the column “ERK1 Omnia WT ATP KM IC50 (nM).”

Experiment [2] deals with ERK1/2 phosphorylation of p90RSK in HT29 cells. Nature of the experiment: pRSK MSD Assay in HT29 cells. In kind it is cell-based. Particulars: Homo sapiens, HT-29, read-out: ERK1/ERK2 PRSK MSD HT29 EC50. The method, then: The protocol below describes an assay to measure the kinase activity of ERK1/2 to phosphorylate a substrate, p90RSK, in the presence or absence of a test compound. This experiment was conducted using a Mesoscale Discovery plate. The day before the assay, HT29 cells were split and plated at 50,000 cells/well in complete growth media. After allowing cells to adhere, the media was removed and replaced with media containing 0.1% FBS and incubated overnight. Blank MSD plates (Mesoscale Discovery, Cat # L15XA3) were coated with 25 μl/well RSK capture antibody (BD Biosciences, Cat. #610226) and incubated at 4° C. overnight, then blocked with 150 μl of 3% BSA solution. The next day, the media from the cell culture plate was removed and replaced with 100 μl of media containing a test compound and incubated for 120 minutes at 37° C. The media was removed and replaced with 55 μl per well of lysis buffer with protease inhibitors (Roche Biosciences, Cat. #11836170001) and phosphatase inhibitors (Sigma-Aldrich, Cat. # P-0044 and P-5726), followed by incubation at 4° C. for 30 minutes. 50 μl of lysate was transferred to a blocked MSD plate, followed by incubation at room temperature for 2 hours under constant shaking. The plate was washed 3 times with MSD wash buffer (Mesoscale Discovery, Cat. # R617TX), and 25 μl/well phospho-RSK (pRSK) detection antibody (Cell Signaling Technology, Cat. #9335) was added with Sulfo-tagged detection antibody (Mesoscale Discovery, Cat. # R32AB-1) diluted in 1% BSA in MSD wash buffer. This mixture was incubated for 1 hour at room temperature under constant shaking. The plate was washed 3 times, and 150 μl 1×MSD read buffer was added, followed by signal detection in an MSD plate reader.

T1 sequence (P27361 whole entry): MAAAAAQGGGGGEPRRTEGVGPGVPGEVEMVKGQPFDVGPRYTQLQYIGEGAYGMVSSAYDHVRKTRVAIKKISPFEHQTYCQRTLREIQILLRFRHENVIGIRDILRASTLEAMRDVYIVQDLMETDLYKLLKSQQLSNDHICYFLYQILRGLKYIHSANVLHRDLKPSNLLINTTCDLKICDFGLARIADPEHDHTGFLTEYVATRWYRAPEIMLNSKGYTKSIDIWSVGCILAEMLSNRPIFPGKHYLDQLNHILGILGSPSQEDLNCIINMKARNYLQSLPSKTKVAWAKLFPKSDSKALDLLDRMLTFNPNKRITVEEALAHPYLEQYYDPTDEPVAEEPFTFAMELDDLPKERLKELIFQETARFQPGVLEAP

Broadly, the IC50 is the point on the concentration scale where inhibition reaches its midpoint. In the case of `C=CC(=O)Nc1cc(F)ccc1Nc1nc(Nc2cc(C(N)=O)ccc2C#N)ncc1Cl` [Compound I-207, 3-(4-(2-acrylamido-4-fluorophenylamino)-5-chloropyrimidin-2-ylamino)-4-cyanobenzamide], the IC50 in experiment [1] was in the range of 101 to 500 nM. Also, in experiment [2], the EC50 is over 1000 nM. The matching figures for `C=CC(=O)Nc1ccccc1Nc1nc(Nc2cc(C(=O)NOCCO)ccc2OC)ncc1Cl` [Compound I-194, 3-((4-((2-acrylamidophenyl)amino)-5-chloropyrimidin-2-yl)amino)-N-(2-hydroxyethoxy)-4-methoxybenzamide]: 101 to 500 nM and 501 to 999 nM. For the molecule `C=CC(=O)Nc1ccccc1Nc1nc(Nc2cc(C(=O)O)ccc2C)ncc1Cl` [Compound I-225, 3-((4-((2-acrylamidophenyl)amino)-5-chloropyrimidin-2-yl)amino)-4-methylbenzoic acid], the IC50 in experiment [1] lay in the range of 101 to 500 nM. Besides, in experiment [2], the EC50 is over 1000 nM. The like results for `C=CC(=O)Nc1ccccc1Nc1nc(Nc2cc(C(=O)NOC)ccc2OC)ncc1Cl` [Compound I-187, 3-((4-((2-acrylamidophenyl)amino)-5-chloropyrimidin-2-yl)amino)-N,4-dimethoxybenzamide] were, in that order, 101 to 500 nM and 101 to 500 nM. For `C=CC(=O)Nc1cc(C)ccc1Nc1nc(Nc2ccnc(Cl)c2)ncc1Cl` [Compound I-230, N-(2-((5-chloro-2-((2-chloropyridin-4-yl)amino)pyrimidin-4-yl)amino)-5-methylphenyl)acrylamide], the IC50 in experiment [1] was 501 to 999 nM. For the same molecule, in experiment [2], the EC50 lay within 101 to 500 nM. For `C=CC(=O)Nc1ccccc1Nc1nc(Nc2cc(C(=O)NOC)ccc2C#N)ncc1Cl` [Compound I-195, 3-((4-((2-acrylamidophenyl)amino)-5-chloropyrimidin-2-yl)amino)-4-cyano-N-methoxybenzamide], the IC50 in experiment [1] was in the range of 101 to 500 nM. Further, the EC50 in experiment [2] is over 1000 nM. The matching figures for `C=CC(=O)Nc1ccccc1Nc1nc(N[C@@H]2CCC[C@H](C(=O)O)C2)ncc1C(F)(F)F` (racemic) [Compound I-14, Rac-3-((4-((2-acrylamidophenyl)amino)-5-(trifluoromethyl)pyrimidin-2-yl)amino)-cis-cyclohexanecarboxylic acid]: 101 to 500 nM and over 1000 nM. Turning to `C=CC(=O)Nc1ccccc1Nc1nc(Nc2cc(C(=O)NOC)ccc2OC)ncc1C(F)(F)F` [Compound I-67, 3-((4-((2-Acrylamidophenyl)amino)-5-(trifluoromethyl)pyrimidin-2-yl)amino)-N,4-dimethoxybenzamide], the IC50 in experiment [1] lay within 101 to 500 nM. Besides, in experiment [2], the EC50 was 501 to 999 nM. Consider `C=CC(=O)Nc1ccccc1Nc1nc(Nc2ccc(F)cc2OC)ncc1Cl` [Compound I-210, N-(2-((5-chloro-2-((4-fluoro-2-methoxyphenyl)amino)pyrimidin-4-yl)amino)phenyl)acrylamide], for which, in experiment [1], the IC50 lay within 101 to 500 nM. In addition, the EC50 in experiment [2] was in the range of 101 to 500 nM. Regarding `C=CC(=O)N[C@H]1CCCC[C@@H]1Nc1nc(N[C@H]2CCCN(C(=O)CO)C2)ncc1Cl` (racemic) [Compound I-141, Rac-N-(2-((5-chloro-2-(((R)-1-(2-hydroxyacetyl)piperidin-3-yl)amino)pyrimidin-4-yl)amino)-trans-cyclohexyl)acrylamide], the IC50 in experiment [1] was in the range of 101 to 500 nM. In addition, the EC50 in experiment [2] lay in the range of 501 to 999 nM.

For `C=CC(=O)N[C@@H]1CCCC[C@H]1Nc1nc(Nc2cc(C(N)=O)ccc2C)ncc1Cl` (racemic) [Compound I-226, Rac-trans-3-((4-((2-acrylamidocyclohexyl)amino)-5-chloropyrimidin-2-yl)amino)-4-methylbenzamide], the IC50 in experiment [1] is 501 to 999 nM. Moreover, the EC50 in experiment [2] fell in the range of 501 to 999 nM. As to `C=CC(=O)Nc1ccccc1Nc1nc(N[C@H]2CCCN(C(=O)C(C)(C)O)C2)ncc1Cl` [Compound I-135, (S)—N-(2-((5-chloro-2-((1-(2-hydroxy-2-methylpropanoyl)piperidin-3-yl)amino)pyrimidin-4-yl)amino)phenyl)acrylamide], in experiment [1], the IC50 lay within 101 to 500 nM. Also, in experiment [2], the EC50 was over 1000 nM.

For the molecule `C=CC(=O)Nc1ccccc1Nc1nc(Nc2cncc(C(N)=O)c2)ncc1C(F)(F)F` [Compound I-63, 5-((4-((2-Acrylamidophenyl)amino)-5-(trifluoromethyl)pyrimidin-2-yl)amino)nicotinamide], the IC50 in experiment [1] was in the range of 101 to 500 nM. The EC50 in experiment [2] was over 1000 nM. The like results for `O=C(CCl)N[C@@H]1CCCC[C@H]1Nc1nc(N[C@H]2CCCN(C(=O)CO)C2)ncc1C(F)(F)F` [Compound I-35, 2-Chloro-N-((1R,2R)-2-((2-(((S)-1-(2-hydroxyacetyl)piperidin-3-yl)amino)-5-(trifluoromethyl)pyrimidin-4-yl)amino)cyclohexyl)acetamide] were, in that order, 101 to 500 nM and over 1000 nM.

On to `C=CC(=O)N(C)c1ccccc1Nc1nc(N[C@@H]2CCC[C@H](C(=O)NOC)C2)ncc1Cl` (racemic) [Compound I-106, Rac-cis-3-((5-chloro-4-((2-(N-methylacrylamido)phenyl)amino)pyrimidin-2-yl)amino)-N-methoxycyclohexanecarboxamide], for which the IC50 in experiment [1] was over 1000 nM. Moreover, the EC50 in experiment [2] is over 1000 nM. Take `C/C=C/C(=O)Nc1cc(F)ccc1Nc1nc(N[C@@H]2CCC[C@H](C(N)=O)C2)ncc1C(F)(F)F` (racemic) [Compound I-6, Rac-(E)-3-((4-((2-(but-2-enamido)-4-fluorophenyl)amino)-5-(trifluoromethyl)pyrimidin-2-yl)amino)-cis-cyclohexanecarboxamide]: in experiment [1], the IC50 was over 1000 nM. The EC50 in experiment [2] is over 1000 nM.

`C=CC(=O)Nc1ccccc1Nc1nc(Nc2cc(C(N)=O)c(OCCCNC(=O)C#CC)cc2C)ncc1Cl` [Compound I-305, 5-((4-((2-acrylamidophenyl)amino)-5-chloropyrimidin-2-yl)amino)-2-(3-(but-2-ynamido)propoxy)-4-methylbenzamide]: the IC50 in experiment [1] lay within 101 to 500 nM. Further, in experiment [2], the EC50 was over 1000 nM. Take `C=CC(=O)Nc1ccccc1Nc1nc(Nc2ccc(N3CCN(C(=O)CCCC(=O)NCCCOCCOCCOCCCNC(=O)CCCC[C@@H]4SC[C@@H]5NC(=O)N[C@@H]54)CC3)cc2OC(F)F)ncc1Cl` [Compound I-306, 5-(4-(4-((4-((2-acrylamidophenyl)amino)-5-chloropyrimidin-2-yl)amino)-3-(difluoromethoxy)phenyl)piperazin-1-yl)-5-oxo-N-(15-oxo-19-((3aS,4S,6aR)-2-oxohexahydro-1H-thieno[3,4-d]imidazol-4-yl)-4,7,10-trioxa-14-azanonadecyl)pentanamide]: the IC50 in experiment [1] fell in the range of 101 to 500 nM. On the same count and under the same terms, then `C=CC(=O)Nc1cc(OC)ccc1Nc1nc(Nc2ccc(N(CC)C(C)=O)cc2OC)ncc1Cl` [Compound I-175, N-(2-((5-chloro-2-((4-(N-ethylacetamido)-2-methoxyphenyl)amino)pyrimidin-4-yl)amino)-5-methoxyphenyl)acrylamide], with 101 to 500 nM.

In the case of `C=CC(=O)N[C@@H]1CCCC[C@H]1Oc1nc(Nc2cc(C(=O)NOC)ccc2C)ncc1C(N)=O` (racemic) [Compound I-269, Rac-trans-4-((2-acrylamidocyclohexyl)oxy)-2-((5-(methoxycarbamoyl)-2-methylphenyl)amino)pyrimidine-5-carboxamide], the IC50 in experiment [1] was over 1000 nM.
